US20240325489A1, “CONNEXIN 43 FOR USE IN THE TREATMENT OF RETINOBLASTOMA PROTEIN POSITIVE TUMOURS” (FUNDACIÓN PROFESOR NOVOA SANTOS, priority 2021, published 2024)
Entries after “also recorded” stand apart in the source; their conditions may differ.

Tests used:
[1] = system: MCF7 cells; experiment: Colony formation assay; assay type: cell-based, human; conditions: for reduction in cell proliferation: FIG. 3c, MCF7, 500 nM Palbociclib 7 days, compared with untreated control
Procedure: (§1) Retroviral infection was used to overexpress Cx43 in MCF7 cells. Retroviral particles were generated by transfecting pLPCX-Cx43 and pLPCX-EV plasmids, kindly donated by Dr. Trond Aasen, and retroviral helper plasmids (vsvg and gag-pol) with Polyethylenimine (PEI) in HEK293T packaging cells for 48 h. The supernatant was then filtered with 0.45 μm filters and applied to MCF7 cells in the presence of 4 μg/ml polybrene (hexadimethrine bromide; Sigma-Aldrich) following 3 rounds of infection. Cells were subsequently selected with the appropriate antibiotic resistance using 0.5 μg/ml puromycin (Sigma).
(§2) Cells were treated with 250 nM of Palbociclib (PD0332991) (APExBIO), 500 nM Abemaciclib (LY2835219) (Selleckchem) or 500 nM Ribociclib (LEE011) (Selleckchem) for 7 days. All treatments were done using DMEM supplemented with 10% FBS and 100 U/mL penicillin and 100 μg/ml streptomycin. Media was replaced every 2 days.
(§3) Colony formation assays were performed plating 5×10^3 to 5×10^4 cells per well onto 6-12 well plates and grown for 7-15 days. Medium was replaced every 48 h. The cells were washed with warm Saline Solution and fixed with cold 4% PFA for 15 min. Cells were washed with PBS and stained with 0.05% of crystal violet (Sigma-Aldrich) for 15 min. After staining, the cells were washed with distilled water and dried at room temperature. The colonies were quantified by diluting crystal violet in 30% acetic acid and 100 μL of the solution was collected to measure the absorbance at 570 nm using a NanoQuant microplate reader Infinite M200 (TECAN).
HEK 293T cells were seeded onto 162 cm^2 culture flasks (Corning, Sigma-Aldrich) until confluence (80%-90%). Cells were washed three times with PBS and cultured for 48 h in DMEM 0% FBS. Supernatants were collected and centrifuged at 1800 rpm for 5 min. Pellet was discarded and supernatants were filtered through a 0.22 μm filter and then the filtered supernatants were centrifuged at 100,000 g for 90 min at 4° C. (Optimal-90K ultracentrifuge) using 70 Ti rotor (Beckman Coulter). Supernatants were discarded and pellet-containing sEVs were washed with PBS and centrifuged at 100,000 g for 90 min at 4° C. The pellet with sEVs was resuspended in culture medium. Target cells (MCF7 or T47D cells) were treated with sEVs in the presence/absence of CDK 4/6 inhibitors for 48 h. 3 rounds of treatment were performed. For NTA Nanosight NS300 analysis and sEV protein and RNA content determination, a second ultracentrifugation with PBS was performed, and sEV pellet was resuspended in PBS. […]

[2] = system: T47D cells; experiment: Colony formation assay; assay type: cell-based; conditions: 7 days treatment
Procedure: as §2, §3
HEK 293T cells were seeded onto 162 cm^2 culture flasks (Corning, Sigma-Aldrich) until confluence (80%-90%). Cells were washed three times with PBS and cultured for 48 h in DMEM 0% FBS. Supernatants were collected and centrifuged at 1800 rpm for 5 min. Pellet was discarded and supernatants were filtered through a 0.22 μm filter and then the filtered supernatants were centrifuged at 100,000 g for 90 min at 4° C. […]

[3] = system: A375 melanoma cells; experiment: Colony formation assay; assay type: cell-based, human; conditions: A375 Cx43 vs EV, 7 days, 250 nM Palbociclib, 500 nM Abemaciclib and Ribociclib
Procedure: (§4) Cell lines (A375 and HT29) were transfected by electroporation to overexpress Cx43. The Amaxa® Cell Line Nucleofector® Kit V (Lonza) was used to transfect cells in a Cell Line Nucleofector™ Device (Lonza). A million cells were harvested and resuspended in 100 μL of Nucleofector® solution. 3 μg of the corresponding plasmid was added, and the mixture was transferred into an electroporation cuvette using the U-28 program. Cell lines were transfected with pIRESpuro2 plasmid construct (Clontech) containing the human Cx43 sequence, kindly donated by Arantxa Tabernero (Institute of Neuroscience of Castilla y León, University of Salamanca, Spain). The transfected cells were seeded in culture medium and 24 hours (h) post-transfection the medium was replaced with complete medium containing puromycin dihydrochloride (Tocris, Bioscience) at different concentrations depending of the cell line (0.5 μg/mL to 2 μg/mL). […]
(§5) Colony formation assays were performed plating 5×10^3 to 5×10^4 cells per well onto 6-12 well plates and grown for 7-15 days. […] The colonies were quantified by diluting crystal violet in 30% acetic acid and 100 μL of the solution was collected to measure the absorbance at 570 nm using a NanoQuant microplate reader Infinite M200 (TECAN).

[4] = system: HT29 colon adenocarcinoma cells; experiment: Proliferation of colon cells (colony formation); assay type: cell-based; conditions: HT29 Cx43 vs EV, 7 days, 250 nM Palbociclib, 500 nM Abemaciclib and Ribociclib
Procedure: as §4, §5

[5] = system: MCF7 cells; experiment: Senescence and apoptosis markers (western-blot, qPCR, SA-β-galactosidase); assay type: cell-based, human
Procedure: Cells were grown onto coverslips and fixed with 4% paraformaldehyde (PFA) for 10 min at room temperature (RT). Cells were then washed twice with PBS and permeabilized by incubation with 0.2% Triton X-100 (Sigma) in PBS for 10 min at RT. After a PBS wash, cells were blocked 30 min at RT using 1% BSA in PBS supplemented with 0.1% Tween-20 (PBST). Primary antibodies were diluted in 1% BSA-PBST and incubated overnight (anti-Cx43 (#C6219), Sigma-Aldrich 1:1000; anti-Tubulin (T9026). Cells were then washed with PBS and incubated with secondary antibodies for 1 h at RT. HRP-conjugated secondary antibodies used were anti-mouse (NA-931, Sigma-Aldrich) and anti-rabbit ([…], Sigma-Aldrich). Cells were washed with PBS and fixed with 4% paraformaldehyde for 15 mins at room temperature. […] (Senescence Cells Histochemical Staining Kit Ref […]; Sigma). Cells were imaged using a light microscope at 20× magnification and single representative images of each well were taken. Total RNA was isolated from cells using TRI Reagent® RT (Vitro Bio) according to manufacturer's protocol. 200 μL of chloroform were added to the tubes and samples were incubated for 10 min at 4° C. and then centrifugated at 14,000 g for 15 min at 4° C. After centrifugation, the aqueous phase (upper) are obtained and transferred to a new tube with 500 μL of isopropanol and samples were vortexed 15 sec. The tubes centrifugated at 14,000 g for 15 min at 4° C. Supernatant was discarded, and the RNA pellets were washed with 1 mL of 70% ethanol and centrifugated for 5 min at 7,000 g at 4° C. The supernatants were discarded, and RNA pellets were air dry. RNA was treated with DNase I, RNase free (Thermo Fisher Scientific) following manufacturer's protocol. RNA samples were quantified in a Nanodrop® ND-1000 (Thermo Fisher Scientific). 1 μg of RNA was used to synthesize complementary DNA (cDNA) with the SuperscriptTM IV VILOTM Master Mix (Invitrogen, Thermo Fisher Scientific) following manufacturer's protocol. cDNA samples are quantified in a Nanodrop® ND-1000 (Thermo Fisher Scientific) and resuspended in DNase/RNase/Protease-free water (Sigma-Aldrich). 5 μL of cDNA (1 μg) were mixed with 0.5 μL of primer mix (10 μM each primer), 10 μL of Applied BiosystemsTM PowerUPTM SYBRTM Green Master Mix (Applied Biosystems, Thermo Fisher Scientific) and complete with dH2O until 20 μL per well on LightCycler® 480 System (Roche). The program consisted on a first denaturing cycle of 10 min at 95° C. followed by 30-55 amplification cycles for 10 seconds (sec) at 95° C., 30 sec at 60° C. for annealing and 12 sec at 72° C. for extension. The primers used are listed below: […]

[6] = system: MCF7 cells; experiment: Hemichannel activity (ATP release) and gap-junction communication (parachute assay); assay type: cell-based, human; conditions: MCF7 upon Cx43 restoration vs EV
[7] = system: MCF7 cells expressing the vector control (EV); experiment: IC50 calculation, Palbociclib dose-response, crystal violet; assay type: cell-based; conditions: Homo sapiens, 168 h; MCF7 EV (no Cx43), 7 days treatment, absorbance 570 nm
Procedure: (§6) Rb positive cell lines MCF7 (breast cancer), T47D (breast cancer) and A375 (melanoma) were cultured in Dulbecco's modified Eagle's medium (DMEM) (Lonza) supplemented with 10% fetal bovine serum (FBS) (Gibco, Thermo Fisher Scientific) and 100 U/mL penicillin and 100 μg/ml streptomycin (Gibco, Thermo Fisher Scientific). HT29 (colon adenocarcinoma) was cultured in McCoy'S 5A medium (Sigma-Aldrich) supplemented with 10% FBS and 100 U/mL penicillin and 100 μg/ml streptomycin. Cells were maintained at 37° C. in 5% CO2 humidified incubator (SANYO CO2). The medium was changed every 2 days.
as §1, with “Cells were subsequently selected with the appropriate antibiotic resistance using 0.5 μg/ml puromycin (Sigma).” left out
(§7) IC50s were calculated using cell cultures from MCF7 (EV and Cx43) and T47D cells treated with different concentrations of the CDK4/6 inhibitor Palbociclib for 7 days. Cells were stained with crystal violet and cell number was assessed measuring the absorbance at 570 nm.

[8] = system: MCF7 cells overexpressing Cx43 (MCF7 Cx43); experiment: as above; assay type: cell-based; conditions: Homo sapiens, 168 h; MCF7 containing Cx43, 7 days treatment, absorbance 570 nm
Procedure: as §6
as §1, with “Cells were subsequently selected with the appropriate antibiotic resistance using 0.5 μg/ml puromycin (Sigma).” left out
as §7

[9] = system: T47D cells; experiment: as above; assay type: cell-based; conditions: Homo sapiens, 168 h; T47D (lower Cx43 than MCF7-Cx43), 7 days treatment
Procedure: as §6, with “days. IC50s were calculated using cell cultures from MCF7 (EV and Cx43) and T47D cells treated with different concentrations of the CDK4/6 inhibitor Palbociclib for 7 days. Cells were stained with crystal violet and cell number was assessed measuring the absorbance at 570 nm.” for “days.”

| Compound | effect of Cx43 overexpression on the CDK4/6 inhibitor's effect on cell proliferation ([1]; MCF7 Cx43 vs EV, 7 days, colony formation) | colony formation capacity [2] | effect of Cx43 overexpression on inhibitor efficacy (reduction in proliferation) [3] | effect of Cx43 overexpression on inhibitor efficacy (reduction in proliferation) [4] | reduction in cell proliferation [1] | cell proliferation / colony formation capacity ([1]; MCF7, 7 days) | β-galactosidase activity ([5]; MCF7, SA-β-galactosidase staining) | apoptotic markers Bax and Bcl2 protein ([5]; MCF7, western-blot) | levels of senescent markers p21 and p53 ([5]; MCF7, western-blot, vs vector control (EV)) | SASP factors IL6, IL8, MMP9 (qPCR) ([5]; MCF7 overexpressing Cx43 vs EV) | hemichannels activity and gap-junction intercellular communication [6] | IC50 [7] [nM] | IC50 [8] [nM] | IC50 [9] [nM] |
| --- | --- | --- | --- | --- | --- | --- | --- | --- | --- | --- | --- | --- | --- | --- |
| CN(C)C(=O)c1cc2cnc(Nc3ccc(N4CCNCC4)cn3)nc2n1C1CCCC1 [Ribociclib] | enhances the effect | effectively respond | increases the efficacy | increases the efficacy |  |  |  |  |  |  |  |  |  |  |
| Cx43: connexin 43 overexpressed in tumour cells by retroviral vector or plasmid |  |  |  |  | 50% | induces proliferation arrest; also recorded: significantly reduced cell proliferation and colony formation capacity | increases β-galactosidase activity | increases the pro-apoptotic protein Bax and reduces Bcl2 | increases the levels of the senescent markers p21 and p53 | increases the secretion of different cytokines such as IL6, IL8 and MMP9 | increase in hemichannels activity and gap-junction intercellular communication |  |  |  |
| CC(=O)c1c(C)c2cnc(Nc3ccc(N4CCNCC4)cn3)nc2n(C2CCCC2)c1=O [Palbociclib] |  |  |  |  | around 40% |  |  |  |  |  |  | 282 | 66.8 | 121 |
